Experimental data as given in PubChem BioAssay (NCI).
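Here, GI50 denotes the concentration required for 50% inhibition of growth. TGI denotes the concentration required for complete inhibition of growth.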

Columns and labels:
Experiment in all cases: NCI tumour cell line growth inhibition, 384-well format
CAKI-1 renal = test system: CAKI-1 renal
TK-10 renal = test system: TK-10 renal
786-0 renal = test system: 786-0 renal
NCI-H460 NSCLC = test system: NCI-H460 NSCLC
HOP-92 NSCLC = test system: HOP-92 NSCLC
UACC-62 melanoma = test system: UACC-62 melanoma
SNB-75 CNS = test system: SNB-75 CNS
SK-MEL-28 melanoma = test system: SK-MEL-28 melanoma
SR leukemia = test system: SR leukemia
SK-MEL-2 melanoma = test system: SK-MEL-2 melanoma
HOP-62 NSCLC = test system: HOP-62 NSCLC
MCF7 breast = test system: MCF7 breast
SNB-19 CNS = test system: SNB-19 CNS

| SMILES | GI50 (CAKI-1 renal) [µM] | TGI (CAKI-1 renal) [µM] | GI50 (TK-10 renal) [µM] | TGI (TK-10 renal) [µM] | GI50 (786-0 renal) [µM] | TGI (786-0 renal) [µM] | GI50 (NCI-H460 NSCLC) [µM] | TGI (NCI-H460 NSCLC) [µM] | GI50 (HOP-92 NSCLC) [µM] | TGI (HOP-92 NSCLC) [µM] | GI50 (UACC-62 melanoma) [µM] | TGI (UACC-62 melanoma) [µM] | GI50 (SNB-75 CNS) [µM] | TGI (SNB-75 CNS) [µM] | GI50 (SK-MEL-28 melanoma) [µM] | TGI (SK-MEL-28 melanoma) [µM] | GI50 (SR leukemia) [µM] | TGI (SR leukemia) [µM] | GI50 (SK-MEL-2 melanoma) [µM] | TGI (SK-MEL-2 melanoma) [µM] | further results |
| --- | --- | --- | --- | --- | --- | --- | --- | --- | --- | --- | --- | --- | --- | --- | --- | --- | --- | --- | --- | --- | --- |
| Cc1cc(-c2nnc(N)nc2-c2ccc(F)cc2)cc(Cl)n1 | > 91.5 | > 100 | 44.3 | > 100 | > 100 | > 100 | > 89.7 | > 100 | > 50.9 | > 100 | 75.7 | > 100 | > 100 | > 100 | > 100 | > 100 | 33.9 | > 100 | > 100 | > 100 | GI50 (HOP-62 NSCLC): > 82.1 µM; TGI (HOP-62 NSCLC): > 100 µM; GI50 (MCF7 breast): > 100 µM; TGI (MCF7 breast): > 100 µM; GI50 (SNB-19 CNS): > 100 µM; TGI (SNB-19 CNS): > 100 µM |
| Cc1ccc(-c2nc(N)nc3c2nnn3Cc2cccc(CO[C@H]3CCOC3)n2)o1 | > 100 | > 100 | > 100 | > 100 | > 100 | > 100 | > 100 | > 100 | > 100 | > 100 | > 100 | > 100 | > 100 | > 100 | > 100 | > 100 | > 73.2 | > 100 | > 100 | > 100 | GI50 (HOP-62 NSCLC): > 100 µM; TGI (HOP-62 NSCLC): > 100 µM; GI50 (MCF7 breast): > 100 µM; TGI (MCF7 breast): > 100 µM; GI50 (SNB-19 CNS): > 100 µM; TGI (SNB-19 CNS): > 100 µM |
